According to ChEMBL document CHEMBL1133713, “Novel 1,5-diphenylpyrazole nonnucleoside HIV-1 reverse transcriptase inhibitors with enhanced activity versus the delavirdine-resistant P236L mutant: lead identification and SAR of 3- and 4-substituted derivatives” (J Med Chem, 2000):
Counter-ions that a name gives are not always drawn.

What was measured:
[1] = biological target: Human immunodeficiency virus type 1 reverse transcriptase (Human immunodeficiency virus 1) (UniProt Q72547); experiment: In vitro inhibition of wild type resistant reverse transcriptase at a concentration of 50 uM.
[2] = biological target: Human immunodeficiency virus type 1 reverse transcriptase (Human immunodeficiency virus 1) (UniProt Q72547); experiment: In vitro inhibition of wild type resistant reverse transcriptase at a concentration of 10 uM.
[3] = tested on: Human immunodeficiency virus type 1 reverse transcriptase (Human immunodeficiency virus 1), Q72547 [P236L]; experiment: In vitro inhibition of mutant P236L reverse transcriptase at a concentration of 10 uM.
[4] = tested on: Human immunodeficiency virus type 1 reverse transcriptase (Human immunodeficiency virus 1), Q72547 [P236L]; experiment: In vitro Inhibition of mutant P236L reverse transcriptase at a concentration of 50 uM.
[5] = biological target: Human immunodeficiency virus type 1 reverse transcriptase (Human immunodeficiency virus 1) (UniProt Q72547); experiment: In vitro inhibition of wild type resistant reverse transcriptase at a concentration of 1 uM.
[6] = tested on: Human immunodeficiency virus type 1 reverse transcriptase (Human immunodeficiency virus 1), Q72547 [P236L]; experiment: In vitro inhibition of mutant P236L reverse transcriptase at a concentration of 1 uM.
[7] = Effective dose for inhibition of viral replication in cell culture […]; format: functional; conditions: read-out: ED50 (the source's name)
[8] = Cytotoxic concentration was determined; format: functional
[9] = biological target: Human immunodeficiency virus type 1 reverse transcriptase (Human immunodeficiency virus 1, UniProt Q72547); experiment: In vitro ability to inhibit wild type resistant (WT) reverse transcriptase
[10] = biological target: Human immunodeficiency virus type 1 reverse transcriptase (Human immunodeficiency virus 1, UniProt Q72547, P236L); experiment: In vitro ability to inhibit mutant P236L reverse transcriptase

Cc1nn(-c2ccccc2)c(-c2ccccc2)c1CC(N)=O
inhibition [1]: 48%
inhibition [2]: 36%
inhibition [3]: 0%
inhibition [4]: 29%
inhibition [5]: 11%
inhibition [6]: 0%

Cc1nn(-c2ccccc2)c(-c2ccccc2)c1C(=O)O
inhibition [1]: 1%
inhibition [2]: 0%
inhibition [3]: 1%
inhibition [4]: 4%
inhibition [5]: 4%
inhibition [6]: 0%

CCc1c(CC(=O)NC)nn(-c2ccccc2)c1-c1ccccc1
inhibition [1]: 7%
inhibition [2]: 3%
inhibition [3]: 8%
inhibition [4]: 12%
inhibition [5]: 1%
inhibition [6]: 6%

CCCc1c(C)nn(-c2ccccc2)c1-c1ccccc1
inhibition [1]: 49%
inhibition [2]: 31%
inhibition [3]: 56%
inhibition [4]: 71%
inhibition [5]: 14%
inhibition [6]: 4%

Cc1nn(-c2ccccc2)c(-c2ccccc2)c1C(C)C
inhibition [1]: 6%
inhibition [2]: 18%
inhibition [3]: 8%
inhibition [4]: 13%
inhibition [5]: 0%
inhibition [6]: 0%

CCc1c(CC(=O)OC)nn(-c2ccccc2)c1-c1ccccc1
inhibition [1]: 34%
inhibition [2]: 20%
inhibition [3]: 41%
inhibition [4]: 55%
inhibition [5]: 5%
inhibition [6]: 21%

Cc1nn(-c2ccccc2)c(-c2ccccc2)c1CC(=O)O
inhibition [1]: 3%
inhibition [2]: 0%
inhibition [3]: 0%
inhibition [4]: 0%
inhibition [5]: 0%
inhibition [6]: 0%

Cc1ccnc2c1NC(=O)c1cccnc1N2C1CC1 [NEVIRAPINE]
EC50 [7]: 10 nM
CC50 [8]: > 10000 nM

CCc1c(CCOC)nn(-c2ccccc2)c1-c1ccccc1
inhibition [1]: 33%
inhibition [2]: 29%
inhibition [3]: 47%
inhibition [4]: 71%
inhibition [5]: 22%
inhibition [6]: 15%

CCc1cc(NCc2nc3c(Cl)ccc(Cl)c3o2)c(O)nc1C [L-697661]
EC50 [7]: < 0.1 nM
CC50 [8]: > 10000 nM

CNC(=O)c1c(C)nn(-c2ccccc2)c1-c1ccccc1
inhibition [1]: 3%
inhibition [2]: 7%
inhibition [3]: 0%
inhibition [4]: 0%
inhibition [5]: 5%
inhibition [6]: 15%

CC(C)Nc1cccnc1N1CCN(C(=O)c2cc3cc(NS(C)(=O)=O)ccc3[nH]2)CC1 [DELAVIRDINE MESYLATE]
EC50 [7]: 0.1 nM
CC50 [8]: > 10000 nM

C=Cc1c(C)nn(-c2ccccc2)c1-c1ccccc1
inhibition [1]: 18%
inhibition [2]: 10%
inhibition [3]: 26%
inhibition [4]: 59%
inhibition [5]: 3.6%
inhibition [6]: 21%

CCc1c(CCO)nn(-c2ccccc2)c1-c1ccccc1
inhibition [1]: 42%
inhibition [2]: 18%
IC50 [9]: > 50000 nM
inhibition [3]: 84%
IC50 [10]: 650 nM
inhibition [4]: 95%
inhibition [5]: 0%
inhibition [6]: 58%

CC#Cc1c(C)nn(-c2ccccc2)c1-c1ccccc1
inhibition [1]: 72%
inhibition [2]: 37%
IC50 [9]: 13400 nM
inhibition [3]: 80%
IC50 [10]: 1540 nM
inhibition [4]: 93%
inhibition [5]: 0%
inhibition [6]: 38%

COCc1c(C)nn(-c2ccccc2)c1-c1ccccc1
inhibition [1]: 14%
inhibition [2]: 0%
inhibition [3]: 18%
inhibition [4]: 50%
inhibition [5]: 0%
inhibition [6]: 0%

CCc1c(C)nn(-c2ccccc2)c1-c1ccccc1
inhibition [1]: 67%
inhibition [2]: 42%
IC50 [9]: 14500 nM
inhibition [3]: 81%
IC50 [10]: 520 nM
inhibition [4]: 94%
inhibition [5]: 1%
inhibition [6]: 50%

Cc1nn(-c2ccccc2)c(-c2ccccc2)c1CC#N
inhibition [1]: 90%
EC50 [7]: 100 nM
inhibition [2]: 71%
CC50 [8]: > 10000 nM
IC50 [9]: 2310 nM
inhibition [3]: 77%
IC50 [10]: 1140 nM
inhibition [4]: 93%
inhibition [5]: 37%
inhibition [6]: 47%

Cc1nn(-c2ccccc2)c(-c2ccccc2)c1C
inhibition [1]: 0%
inhibition [2]: 0%
inhibition [3]: 3%
inhibition [4]: 36%
inhibition [5]: 0%
inhibition [6]: 0%

Cc1nn(-c2ccccc2)c(-c2ccccc2)c1CCO
inhibition [1]: 0%
inhibition [2]: 0%
inhibition [3]: 8%
inhibition [4]: 28%
inhibition [5]: 0%
inhibition [6]: 12%

CCc1c(CC(N)=O)nn(-c2ccccc2)c1-c1ccccc1
inhibition [1]: 39%
inhibition [2]: 18%
inhibition [3]: 29%
inhibition [4]: 52%
inhibition [5]: 12%
inhibition [6]: 16%

CCc1c(CC(=O)O)nn(-c2ccccc2)c1-c1ccccc1
inhibition [1]: 0%
inhibition [2]: 0%
inhibition [3]: 13%
inhibition [4]: 14%
inhibition [5]: 0%
inhibition [6]: 0%

C/N=C(/S)c1c(C)nn(-c2ccccc2)c1-c1ccccc1
inhibition [1]: 0%
inhibition [2]: 0%
inhibition [3]: 0%
inhibition [4]: 0%
inhibition [5]: 0%
inhibition [6]: 0%

CCc1c(CC#N)nn(-c2ccccc2)c1-c1ccccc1
inhibition [1]: 39%
inhibition [2]: 15%
inhibition [3]: 46%
inhibition [4]: 72%
inhibition [5]: 2%
inhibition [6]: 14%
